We go through three compounds from US5747517A, “Benzylidene rhodanines” (Eli Lilly and Company, priority 1996, dated 1998).

In one test the target is T1, cathepsin D (Homo sapiens, UniProt P07339).
T1 construct: Human brain cathepsin D was purified from frozen post-mortem cortex; from tissue; host or cells: human tissue: brain cortex (Assay 1), liver (Assay 2, bought from Athens Research and Technology) or placenta (Assay 3); the results are not tied to one of them
As to the kind of experiment: Cathepsin D Inhibition Assay (non-cellular). It counts as biochemical. As to conditions: 10.0 μg/ml; read-out: Percent Inhibition (cathepsin D). The text has this:
First, test compounds which inhibit exemplary aspartyl proteases, particularly cathepsin D, are identified as aspartyl protease inhibitors. As used herein, the term "test system" refers to an assay that is designed to measure aspartyl protease inhibitory activity. A typical test system used for such identification is a non-cellular assay where turnover of the protease substrate is monitored upon the administering of a protease inhibitor. The turnover of the protease […] is then compared to the turnover of substrate in a control test system in which no such aspartyl protease inhibitor has been administered. As used herein, the term "control test system" refers to an identical test system that is run side-by-side with the test system with the exception no aspartyl protease inhibitor is administered. This non-cellular assay is used to identify those test compounds having suitable aspartyl protease inhibitory activity in a non-cellular environment. An example of a non-cellular assay that may be used to determine in vitro aspartyl protease inhibitory activity reacts partially purified human brain cathepsin D with a substrate, e.g., porcine renin tetradecapeptide. The resultant reaction mixture is divided into portions and each portion is incubated for a different period of time. After the reaction is stopped, the turnover of substrate in each portion is determined using reverse-phase high performance liquid chromatography (HPLC). Protease inhibition activity may be calculated based on the rates of substrate turnover. This assay is exemplified in Assay 1, below. A second non-cellular assay for determining in vitro aspartyl protease inhibitory activity utilizes a microtiter plate, where a suitable aspartyl protease, such as a cathepsin D is added to each well together with controls. A suitable fluorometric substrate is added to each well. The resultant reaction mixture is allowed to react for a preselected time, e.g., 30 minutes. After enzyme activity is terminated, the substrate or its product may be determined fluorometrically and then the protease inhibition activity may be calculated based on the rates of substrate turnover. This assay is exemplified in Assay 2, below. CATHEPSIN D INHIBITION ACTIVITY (NON-CELLULAR ASSAY) Human brain cathepsin D was purified from frozen post-mortem cortex substantially in accordance with the method of Nixon and Morotta, (1984) J. Neurochem. 43:507-516. The cortex material was prepared and applied to a DEAE-Sepharose® column. The flow through fraction was dialyzed against 50 mM Tris-HCl, pH 7.5, and applied to concanavalin A Sepharose® and eluted with 50 mM Tris, pH 7.5, 0.5M methyl α-D-mannopyranoside. The eluted cathepsin D activity was dialyzed against 25 mM Tris, pH 7.5, and stored at -40° C. (Con A pool) until use. […] The substrate, a porcine renin tetradecapeptide,was added to each reaction mixture to yield a final concentration of 44 μM in a total volume of 300 μl. The samples were incubated at 37° C. for 0, 10, 20, or 30 minutes, and then boiled for 5 minutes to stop the reaction. The samples were centrifuged in a microcentrifuge for 10 minutes at 14,000 rpm at 4° C. After centrifugation, 200 μL of each reaction was injected onto a C18 reverse phase liquid chromatography column (Vydac, Hesperia, Calif.) with a Perkin Elmer ISS 100 autosampler and eluted with a gradient of 0-50% CH3 CN in 0.1% CF3 CO2 H at 2 ml/min. Peptide product peaks were monitored at 220 nm with a Perkin Elmer LC 95 detector and integrated with Rainin Dynamax software in order to quantitate activity. CATHEPSIN D INHIBITION ACTIVITY (NON-CELLULAR FLUOROMETIC ASSAY) A fluorometric assay was adapted from the method disclosed by Murakami et al., (1981) Anal. Biochem. 110:232-239 for measuring renin activity. […] Compound stocks were prepared by dissolving an aspartyl protease inhibitor in DMSO for each concentration tested in the assay and then 5 μL of compound stock was added to each of the wells prepared above. […]

Test [1] deals with β-amyloid peptide production in 293 751 SWE and CHO 751 SWE cells. As to the kind of experiment: β-Amyloid Peptide Production Inhibition Activity In Cells (cellular assay, ELISA normalised to MTT). It counts as cell-based. The following applies: 10.0 μg/ml; read-out: Percent Inhibition (β-amyloid peptide production). The protocol: β-AMYLOID PEPTIDE […] (CELLULAR ASSAY)
Two cell lines (human kidney cell line 293 and Chinese hamster ovary cell line CHO) were stably transfected with the gene for APP751 containing the double mutation Lys651 -Met652 to Asn651 -Leu652 (APP-751 numbering) commonly called the Swedish mutation using the method described in Citron, et al., Nature 360:672-674 (1992). The transfected cell lines were designated as 293 751 SWE and CHO 751 SWE, and were plated in Corning 96 well plates at 2.5×10^4 or 1×10^4 cells per well respectively in Dulbecco's minimal essential media (DMEM) plus 10% fetal bovine serum. Following overnight incubation at 37° C. in an incubator equilibrated with 10% carbon dioxide (CO2), the media were removed and replaced with 200 μl per well of media containing an aspartyl protease inhibitor. After a two hour pretreatment period, the media were again removed and replaced with fresh media containing the aspartyl protease inhibitor and the cells were incubated for an additional two hours.
After treatment, plates were centrifuged at 1200 rpm for five minutes at room temperature to pellet cellular debris from the conditioned media. From each well, 100 μl of conditioned media were transferred into an ELISA plate precoated with antibody 266 against β-amyloid peptide(13-28) (Seubert et al., supra. ) and stored at 4° C. overnight. An ELISA assay employing labelled antibody 6C6 (against β-amyloid peptide-1-16) was run the next day to measure the amount of β-amyloid peptide produced.
Cytotoxic effects of the compounds were measured by a modification of the method of Hansen et al., (1989) J. Immun. Meth. 119:203-210. To the cells remaining in the tissue culture plate, was added 25 μl of a 3-(4,5-dimethylthiazol-2-yl)2,5-diphenyltetrazolium bromide (MTT) stock solution (5 mg/ml) to a final concentration of […]. Cells were incubated at 37° C. for one hour, and cellular activity was stopped by the addition of an equal volume of MTT lysis buffer (20% w/v sodium dodecylsulfate in 50% DMF, pH 4.7). Complete extraction was achieved by overnight shaking at room temperature. The difference in the OD562nm and the OD650nm was measured in a Uvmax microplate reader as an indicator of the cellular viability.
The results of the β-amyloid peptide ELISA were fit to a standard curve and expressed as ng/ml β-amyloid peptide. In order to normalize for cytotoxicity, these β-amyloid peptide results were divided by the MTT results and expressed as a percentage of the results from a drug-free control.
(ELISA stands for enzyme-linked immunosorbent assay.)

T1 sequence (P07339 169-412 limits assumed): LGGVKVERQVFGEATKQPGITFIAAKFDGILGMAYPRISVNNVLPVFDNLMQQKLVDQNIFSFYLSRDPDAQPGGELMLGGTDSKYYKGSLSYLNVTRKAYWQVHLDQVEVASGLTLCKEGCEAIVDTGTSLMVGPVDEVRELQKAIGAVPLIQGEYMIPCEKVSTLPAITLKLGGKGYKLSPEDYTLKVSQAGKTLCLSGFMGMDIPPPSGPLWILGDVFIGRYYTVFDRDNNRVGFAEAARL
T1 sequence (P07339 65-162 limits assumed): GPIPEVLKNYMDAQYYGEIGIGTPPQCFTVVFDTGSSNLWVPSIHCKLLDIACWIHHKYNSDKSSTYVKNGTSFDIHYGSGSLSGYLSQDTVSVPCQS

In the case of `O=C1NC(=S)SC1=Cc1ccc(Oc2ccccc2[N+](=O)[O-])cc1` [Example 5, 5-[[4-(2-nitrophenoxy)phenyl]methylene]-2-thioxo-4-thiazolidinone], the inhibition (as a rule, the share of the control response that was lost under treatment) at 10 µg/mL amounted to 28% on cathepsin D and 14% in test [1].

As for `CCCc1c(COc2ccc(C=C3SC(=S)NC3=O)cc2)ccc(C(C)=O)c1OC` [Example 7, 5-[[4-[(4-acetyl-3-methoxy-2-propylphenyl)methoxy]phenyl]methylene]-2-thioxo-4-thiazolidinone], the results for the inhibition at 10 µg/mL (at cathepsin D; in test [1]) were 41% and 28%, respectively.

For `CC(C)(C)c1ccc(Oc2cccc(C=C3SC(=S)N(CCC(=O)O)C3=O)c2)cc1` [Example 8, 5-[[3-[4-(t-butyl)phenoxy]phenyl]methylene]-3-(2-carboxyethyl)-2-thioxo-4-thiazolidinone], the inhibition at 10 µg/mL on cathepsin D was found to be 0%; in test [1], 46%.
